Measured values published in ChEMBL document CHEMBL1201862, “PubChem BioAssay data set” (2004).
Active and inactive are the calls of the source.

Tests used:
[1] = biological target: Exodeoxyribonuclease V (Escherichia coli (strain K12), UniProt P04993+P07648+P08394); assay: RecBCD inhibition via phage-restricted bacterial growth – absorbance, V66 E. coli, mutant T4 phage, counter-screen for AddAB inhibitor project, dose response (AID 492957); format: functional, cell-based, Escherichia coli str. K-12 substr. MG1655
[2] = NIH-3T3 fibroblast cytotoxicity, dose response, cytotoxicity control, cell-based, fluorescence, Alamar Blue, secondary assay (AID 2327); format: functional;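 also: NIH-3T3 mouse fibroblasts cultured with fluconazole at 8 µg/mL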
[3] = fluconazole-exposed Candida albicans growth modulators – fluorescence, retest, confirmation (AID 2467); format: functional, cell-based
[4] = HGIII-sPLA2 enzyme inhibition potency – biochemical, QFRET, IC50, dose response (AID 743457);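 also: green fluorescence rise as the enzyme cleaves BODIPY PC-A2 in liposomes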
[5] = system: Vero; assay: cells; format: functional; conditions: Chlorocebus sabaeus
[6] = Counterscreen for AddAB inhibitors: absorbance-based bacterial cell-based high throughput dose response assay for inhibitors of bacterial viability. [Related pubchem assays (depositor defined):AID435030, AID449728, AID449731, AID488942, AID488955, AID488956]; format: functional
[7] = viability loss of HMLE_sh_eGFP cells – cell-based, luminescence, counter-screen for HMLE_sh_ECad selective toxicity project, dose response (AID 463074); format: functional, Homo sapiens;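 also: HMLE human mammary epithelial cells expressing control shRNA against eGFP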
[8] = Luminescence Cell-Based Dose Retest to Confirm Inhibitors of Cancer Stem Cells. [Related pubchem assays (depositor defined):AID2717, AID2721]; format: functional; conditions: Homo sapiens
[9] = biological target: T1, Tyrosine-protein phosphatase non-receptor type 22 (Homo sapiens, UniProt Q9Y2R2); format: functional
T1 sequence (Q9Y2R2 whole entry): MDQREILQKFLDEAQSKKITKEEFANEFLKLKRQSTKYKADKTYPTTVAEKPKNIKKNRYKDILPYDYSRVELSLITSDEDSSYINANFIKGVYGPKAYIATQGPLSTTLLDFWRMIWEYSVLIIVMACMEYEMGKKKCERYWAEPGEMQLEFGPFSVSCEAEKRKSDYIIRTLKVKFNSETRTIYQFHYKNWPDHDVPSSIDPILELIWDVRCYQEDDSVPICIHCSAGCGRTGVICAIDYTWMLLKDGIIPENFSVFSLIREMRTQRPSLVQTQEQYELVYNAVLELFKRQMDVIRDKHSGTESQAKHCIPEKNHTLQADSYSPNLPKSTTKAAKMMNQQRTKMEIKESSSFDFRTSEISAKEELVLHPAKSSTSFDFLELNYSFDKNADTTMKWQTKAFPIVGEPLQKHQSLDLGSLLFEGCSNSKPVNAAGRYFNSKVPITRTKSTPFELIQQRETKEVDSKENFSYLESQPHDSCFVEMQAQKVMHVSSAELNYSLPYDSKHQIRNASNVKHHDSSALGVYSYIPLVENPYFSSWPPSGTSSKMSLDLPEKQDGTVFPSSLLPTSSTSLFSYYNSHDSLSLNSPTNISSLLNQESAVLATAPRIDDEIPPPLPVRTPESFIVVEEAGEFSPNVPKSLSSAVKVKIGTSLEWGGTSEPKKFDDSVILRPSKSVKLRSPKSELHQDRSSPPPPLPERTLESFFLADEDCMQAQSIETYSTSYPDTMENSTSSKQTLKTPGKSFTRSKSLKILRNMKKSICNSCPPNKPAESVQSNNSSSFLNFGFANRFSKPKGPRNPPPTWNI

[10] = biological target: T1, Tyrosine-protein phosphatase non-receptor type 22; format: functional; remark: listed apart in the source
[11] = biological target: T2, Tyrosine-protein phosphatase non-receptor type 7 (Homo sapiens, UniProt P35236); format: functional
T2 sequence (P35236 whole entry): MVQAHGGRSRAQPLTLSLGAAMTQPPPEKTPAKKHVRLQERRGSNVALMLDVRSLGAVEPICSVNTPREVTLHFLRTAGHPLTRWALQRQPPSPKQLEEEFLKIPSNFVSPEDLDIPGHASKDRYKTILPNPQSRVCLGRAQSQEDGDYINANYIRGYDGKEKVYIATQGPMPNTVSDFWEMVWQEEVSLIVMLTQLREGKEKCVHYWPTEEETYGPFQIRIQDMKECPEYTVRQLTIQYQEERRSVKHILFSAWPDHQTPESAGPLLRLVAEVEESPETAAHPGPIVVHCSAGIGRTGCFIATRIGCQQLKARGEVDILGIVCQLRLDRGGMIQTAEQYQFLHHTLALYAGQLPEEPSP

[12] = biological target: T3, Alkaline phosphatase, tissue-nonspecific isozyme (Homo sapiens, UniProt P05186); assay: inhibition of tissue-nonspecific alkaline phosphatase – biochemical, dose response (AID 488882); format: functional
T3 sequence (P05186 whole entry): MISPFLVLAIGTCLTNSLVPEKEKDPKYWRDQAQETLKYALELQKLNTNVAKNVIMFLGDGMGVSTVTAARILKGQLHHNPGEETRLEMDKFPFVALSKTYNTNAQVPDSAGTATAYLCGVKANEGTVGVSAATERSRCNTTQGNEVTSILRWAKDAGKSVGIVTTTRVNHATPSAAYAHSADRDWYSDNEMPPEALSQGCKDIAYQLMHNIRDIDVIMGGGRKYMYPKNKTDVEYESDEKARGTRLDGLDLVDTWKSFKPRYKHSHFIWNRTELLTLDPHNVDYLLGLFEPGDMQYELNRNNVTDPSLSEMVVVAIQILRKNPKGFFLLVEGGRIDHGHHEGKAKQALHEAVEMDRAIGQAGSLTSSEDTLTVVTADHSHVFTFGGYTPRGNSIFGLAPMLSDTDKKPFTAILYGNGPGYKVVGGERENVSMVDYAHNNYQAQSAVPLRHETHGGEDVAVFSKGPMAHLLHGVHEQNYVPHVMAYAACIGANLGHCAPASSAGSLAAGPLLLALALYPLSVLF

[13] = biological target: T4, Intestinal-type alkaline phosphatase (Homo sapiens, UniProt P09923); assay: Dose Response confirmation of uHTS hits from a small molecule inhibitors of human intestinal alkaline phosphatase via a luminescent assay. [Related pubchem assays (depositor defined):AID2544, AID2574]; format: functional
[14] = biological target: Intestinal-type alkaline phosphatase (Mus musculus, UniProt P24822); assay: PubChem AID 488874; format: functional
[15] = biological target: T4, Intestinal-type alkaline phosphatase; assay: inhibition of human intestinal alkaline phosphatase – biochemical, luminescent, uHTS hits, set 2, dose response (AID 488793); format: functional
[16] = biological target: CAAX prenyl protease 2 (Homo sapiens, UniProt Q9Y256); assay: inhibition of Ras-converting CAAX protease Rce1 – biochemical, yeast membranes, quenched-peptide fluorescence, cherry-pick, dose response (AID 588849)
[17] = biological target: Trypsin (Sus scrofa, UniProt P00761); assay: trypsin protease activity blockade – biochemical, quenched peptide fluorescence, cherry-pick, selectivity assay for Rce1 protease inhibitor project, dose response (AID 488789)
[18] = biological target: CAAX prenyl protease 1 (Saccharomyces cerevisiae S288c, UniProt P47154); assay: yeast CAAX protease Ste24 inhibition – biochemical, S. cerevisiae, plate reader, cherry-pick, dose response (AID 488815)
[19] = biological target: Sphingosine 1-phosphate receptor 3 (Homo sapiens, UniProt Q99500); assay: Late stage counterscreen assay for S1P4 antagonists: Fluorescence dose response cell-based screening assay for antagonists of the Sphingosine 1-Phosphate Receptor 3 (S1P3). [Related pubchem assays (depositor defined):AID1510, AID1524, AID1692, AID1853, AID2332, AID489009, AID489017]; format: functional
[20] = biological target: Sphingosine 1-phosphate receptor 5 (Homo sapiens, UniProt Q9H228); assay: Late stage counterscreen assay for S1P4 antagonists: Fluorescence dose response cell-based screening assay for antagonists of the Sphingosine 1-Phosphate Receptor 5 (S1P5). [Related pubchem assays (depositor defined):AID1510, AID1524, AID1692, AID1853, AID2332, AID489009, AID489017]; format: functional
[21] = biological target: Sphingosine 1-phosphate receptor 2 (Homo sapiens, UniProt O95136); assay: Late stage counterscreen assay for S1P4 antagonists: Fluorescence dose response cell-based screening assay for antagonists of the Sphingosine 1-Phosphate Receptor 2 (S1P2). [Related pubchem assays (depositor defined):AID1510, AID1524, AID1692, AID1853, AID2332, AID489009, AID489017]; format: functional
[22] = biological target: Sphingosine 1-phosphate receptor 1 (Homo sapiens, UniProt P21453); assay: Late stage counterscreen assay for S1P4 antagonists: Fluorescence dose response cell-based screening assay for antagonists of the Sphingosine 1-Phosphate Receptor 1 (S1P1). [Related pubchem assays (depositor defined):AID1510, AID1524, AID1692, AID1853, AID2332, AID489009, AID489017]; format: functional
[23] = system: Trypanosoma cruzi; assay: anti-trypanosomal activity in host cells – cell-based, plate reader, dry powder, set 3, dose response (AID 493197); format: functional
[24] = T. cruzi infection blockers in NIH3T3 cells – beta-gal luminescence, NIH3T3 host cells, confirmation (AID 2630); format: functional, cell-based; conditions: Mus musculus
[25] = system: HEK293; assay: cells; conditions: Homo sapiens;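 also: cells exposed to compound for 14 hours overnight before viability readout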
[26] = biological target: Tumor necrosis factor (Homo sapiens, UniProt P01375); assay: analog potency on TNFa NF-kB signaling – cell-based, revised, SAR follow-up (AID 2337); format: functional
[27] = biological target: Nucleotide-binding oligomerization domain-containing protein 1 (Homo sapiens, UniProt Q9Y239); assay: blockers of NOD1 pathway activity – revised, SAR follow-up (AID 2333); format: functional
[28] = MIN6 cell viability loss – mouse insulinoma, cytotoxicity control, dose response (AID 2122); format: functional;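 also: confirmatory high-throughput counterscreen run to flag cytotoxic compounds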
[29] = decrease of insulin promoter-GFP reporter – imaging, high-content screening, mouse beta cells (AID 1628); format: functional; conditions: MIN6

T4 sequence (P09923 whole entry): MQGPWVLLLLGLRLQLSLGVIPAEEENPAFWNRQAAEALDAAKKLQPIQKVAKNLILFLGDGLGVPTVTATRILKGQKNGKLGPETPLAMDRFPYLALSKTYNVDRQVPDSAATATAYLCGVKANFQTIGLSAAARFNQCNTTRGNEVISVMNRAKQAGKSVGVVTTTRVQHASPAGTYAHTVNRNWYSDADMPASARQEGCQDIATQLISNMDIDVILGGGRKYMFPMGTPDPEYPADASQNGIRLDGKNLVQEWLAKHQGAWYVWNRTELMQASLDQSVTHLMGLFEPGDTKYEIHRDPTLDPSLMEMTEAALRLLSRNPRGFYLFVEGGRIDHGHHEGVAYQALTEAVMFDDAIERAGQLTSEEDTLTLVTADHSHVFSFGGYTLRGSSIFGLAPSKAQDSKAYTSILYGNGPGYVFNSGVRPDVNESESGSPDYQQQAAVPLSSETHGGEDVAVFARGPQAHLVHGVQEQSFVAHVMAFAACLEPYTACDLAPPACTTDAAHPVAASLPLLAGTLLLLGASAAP
Chain of Exodeoxyribonuclease V (P04993 whole entry): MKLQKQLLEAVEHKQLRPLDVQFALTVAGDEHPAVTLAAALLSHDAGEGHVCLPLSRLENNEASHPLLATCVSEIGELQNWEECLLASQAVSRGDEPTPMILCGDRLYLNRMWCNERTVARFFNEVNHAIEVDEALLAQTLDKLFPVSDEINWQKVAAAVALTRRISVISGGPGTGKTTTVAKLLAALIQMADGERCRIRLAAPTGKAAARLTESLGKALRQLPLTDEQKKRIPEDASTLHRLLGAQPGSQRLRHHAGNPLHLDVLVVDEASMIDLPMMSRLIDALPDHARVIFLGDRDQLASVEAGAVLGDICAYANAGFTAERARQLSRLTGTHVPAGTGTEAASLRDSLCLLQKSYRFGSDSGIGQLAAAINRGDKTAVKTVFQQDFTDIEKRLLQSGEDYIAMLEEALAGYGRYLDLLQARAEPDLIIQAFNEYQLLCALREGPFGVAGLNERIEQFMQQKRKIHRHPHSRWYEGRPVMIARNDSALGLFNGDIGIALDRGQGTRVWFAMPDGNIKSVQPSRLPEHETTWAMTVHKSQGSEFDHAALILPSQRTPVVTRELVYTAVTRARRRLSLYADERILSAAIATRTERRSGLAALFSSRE
Chain of Exodeoxyribonuclease V (P07648 whole entry): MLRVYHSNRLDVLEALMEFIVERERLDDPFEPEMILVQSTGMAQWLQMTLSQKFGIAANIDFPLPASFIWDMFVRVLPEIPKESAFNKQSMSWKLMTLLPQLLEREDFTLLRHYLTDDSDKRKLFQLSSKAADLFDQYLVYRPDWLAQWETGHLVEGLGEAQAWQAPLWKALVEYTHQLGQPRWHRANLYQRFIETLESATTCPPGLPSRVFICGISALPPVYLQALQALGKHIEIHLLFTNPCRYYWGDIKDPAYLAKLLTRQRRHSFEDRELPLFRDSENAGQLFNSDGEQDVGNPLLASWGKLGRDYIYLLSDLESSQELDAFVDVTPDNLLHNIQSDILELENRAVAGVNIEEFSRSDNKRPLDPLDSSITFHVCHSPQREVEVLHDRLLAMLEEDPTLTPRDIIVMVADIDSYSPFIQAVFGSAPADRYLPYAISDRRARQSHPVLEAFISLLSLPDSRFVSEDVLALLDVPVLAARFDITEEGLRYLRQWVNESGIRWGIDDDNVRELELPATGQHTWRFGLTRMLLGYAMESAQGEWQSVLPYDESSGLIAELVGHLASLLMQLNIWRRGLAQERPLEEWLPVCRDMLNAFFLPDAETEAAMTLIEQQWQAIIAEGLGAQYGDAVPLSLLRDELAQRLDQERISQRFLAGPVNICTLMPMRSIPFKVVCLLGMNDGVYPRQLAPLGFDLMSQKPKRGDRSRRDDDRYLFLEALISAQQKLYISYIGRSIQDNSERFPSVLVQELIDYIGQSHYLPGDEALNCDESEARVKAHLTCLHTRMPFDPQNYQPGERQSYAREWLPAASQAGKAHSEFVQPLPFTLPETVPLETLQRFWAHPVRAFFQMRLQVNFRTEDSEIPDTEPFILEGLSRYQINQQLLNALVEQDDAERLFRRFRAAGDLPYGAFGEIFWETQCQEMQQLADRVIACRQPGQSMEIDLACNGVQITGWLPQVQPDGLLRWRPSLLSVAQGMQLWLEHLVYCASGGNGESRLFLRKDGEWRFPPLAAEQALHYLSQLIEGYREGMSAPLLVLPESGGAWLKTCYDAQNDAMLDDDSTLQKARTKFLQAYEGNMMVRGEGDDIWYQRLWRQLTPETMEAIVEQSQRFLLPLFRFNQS
Chain of Exodeoxyribonuclease V (P08394 whole entry): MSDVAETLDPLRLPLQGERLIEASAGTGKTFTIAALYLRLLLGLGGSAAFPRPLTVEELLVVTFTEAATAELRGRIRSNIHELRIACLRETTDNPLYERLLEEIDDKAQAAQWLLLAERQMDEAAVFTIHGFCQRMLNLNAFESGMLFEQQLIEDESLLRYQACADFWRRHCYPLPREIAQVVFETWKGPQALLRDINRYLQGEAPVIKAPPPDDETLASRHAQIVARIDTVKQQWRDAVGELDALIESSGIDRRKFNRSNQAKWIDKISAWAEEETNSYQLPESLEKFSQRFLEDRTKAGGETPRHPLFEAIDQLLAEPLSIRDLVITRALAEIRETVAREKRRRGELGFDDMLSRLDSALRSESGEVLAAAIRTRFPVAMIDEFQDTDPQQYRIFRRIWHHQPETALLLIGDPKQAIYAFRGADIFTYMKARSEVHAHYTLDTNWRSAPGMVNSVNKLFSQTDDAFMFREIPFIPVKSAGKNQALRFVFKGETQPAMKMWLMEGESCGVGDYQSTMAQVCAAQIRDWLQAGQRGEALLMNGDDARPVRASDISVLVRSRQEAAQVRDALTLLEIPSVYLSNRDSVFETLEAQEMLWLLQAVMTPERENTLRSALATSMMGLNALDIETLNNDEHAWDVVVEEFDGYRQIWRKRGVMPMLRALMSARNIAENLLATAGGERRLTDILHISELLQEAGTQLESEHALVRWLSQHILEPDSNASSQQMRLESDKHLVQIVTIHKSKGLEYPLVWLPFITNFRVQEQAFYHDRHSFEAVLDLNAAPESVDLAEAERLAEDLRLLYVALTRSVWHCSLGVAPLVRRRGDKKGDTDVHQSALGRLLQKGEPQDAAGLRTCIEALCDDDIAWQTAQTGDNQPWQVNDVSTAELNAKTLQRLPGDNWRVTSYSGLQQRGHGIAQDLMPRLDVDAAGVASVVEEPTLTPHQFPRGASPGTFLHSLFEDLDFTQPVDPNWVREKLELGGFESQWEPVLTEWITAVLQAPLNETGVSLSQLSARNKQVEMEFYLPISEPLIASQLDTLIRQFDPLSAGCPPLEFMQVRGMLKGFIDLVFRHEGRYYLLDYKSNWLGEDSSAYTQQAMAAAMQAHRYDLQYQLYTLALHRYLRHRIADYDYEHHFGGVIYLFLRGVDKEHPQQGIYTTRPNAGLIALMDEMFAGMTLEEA
Chain of Sphingosine 1-phosphate receptor 1 (P21453 whole entry): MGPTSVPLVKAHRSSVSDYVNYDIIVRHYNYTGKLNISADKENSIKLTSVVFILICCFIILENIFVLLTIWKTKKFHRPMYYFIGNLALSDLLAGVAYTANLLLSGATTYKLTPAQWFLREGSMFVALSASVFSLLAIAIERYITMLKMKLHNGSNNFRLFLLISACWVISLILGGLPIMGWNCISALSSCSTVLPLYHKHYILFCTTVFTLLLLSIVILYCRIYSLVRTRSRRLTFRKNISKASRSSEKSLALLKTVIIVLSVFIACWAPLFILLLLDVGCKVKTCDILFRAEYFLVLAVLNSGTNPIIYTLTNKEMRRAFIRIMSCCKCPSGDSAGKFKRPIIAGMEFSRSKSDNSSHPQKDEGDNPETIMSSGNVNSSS
Chain of CAAX prenyl protease 1 (P47154 whole entry): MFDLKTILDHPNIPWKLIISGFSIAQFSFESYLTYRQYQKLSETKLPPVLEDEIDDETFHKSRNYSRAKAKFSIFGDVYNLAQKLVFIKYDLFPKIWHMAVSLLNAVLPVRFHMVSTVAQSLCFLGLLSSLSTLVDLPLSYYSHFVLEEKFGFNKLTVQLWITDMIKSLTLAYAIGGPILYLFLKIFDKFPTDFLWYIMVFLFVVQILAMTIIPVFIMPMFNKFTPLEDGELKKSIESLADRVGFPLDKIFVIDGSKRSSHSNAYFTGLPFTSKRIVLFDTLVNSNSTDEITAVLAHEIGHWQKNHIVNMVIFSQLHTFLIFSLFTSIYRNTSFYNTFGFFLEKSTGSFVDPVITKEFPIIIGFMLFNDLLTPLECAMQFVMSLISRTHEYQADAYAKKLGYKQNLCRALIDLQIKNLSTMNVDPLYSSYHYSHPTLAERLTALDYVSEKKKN
Chain of CAAX prenyl protease 2 (Q9Y256 whole entry): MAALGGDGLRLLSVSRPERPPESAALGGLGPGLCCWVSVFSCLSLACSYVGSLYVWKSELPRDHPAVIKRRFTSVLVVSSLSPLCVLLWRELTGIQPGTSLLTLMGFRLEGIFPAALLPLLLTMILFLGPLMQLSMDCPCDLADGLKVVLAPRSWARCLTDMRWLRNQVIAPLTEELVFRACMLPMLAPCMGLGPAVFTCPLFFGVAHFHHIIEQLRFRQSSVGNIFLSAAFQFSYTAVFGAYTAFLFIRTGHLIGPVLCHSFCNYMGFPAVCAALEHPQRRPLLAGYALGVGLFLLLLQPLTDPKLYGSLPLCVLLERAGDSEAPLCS
Chain of Tumor necrosis factor (P01375 whole entry, the tested form may be a part): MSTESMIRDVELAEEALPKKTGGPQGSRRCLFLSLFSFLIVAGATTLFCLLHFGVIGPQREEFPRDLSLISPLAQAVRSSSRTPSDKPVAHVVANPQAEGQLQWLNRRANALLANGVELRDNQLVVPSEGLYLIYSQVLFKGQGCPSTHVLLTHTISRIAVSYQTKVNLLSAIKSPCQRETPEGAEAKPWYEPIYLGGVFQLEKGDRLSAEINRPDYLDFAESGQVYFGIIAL

With `O=C(NC(=S)NNC(=O)c1cc2ccccc2cc1O)c1ccco1` the IC50 [1] was > 119 µM (inactive), the EC50 [2] was > 160 µM (inactive) and the EC50 [3] was 2.19 µM (active). For the same compound, the IC50 [4] was > 40.6 µM (inactive), the CC50 [5] was 14.4 µM (active) and the IC50 [6] was > 119 µM (inactive).
In the case of `Cc1ccc(-c2ccc(OC(=O)c3ccc(O)nc3)c(C)c2)cc1`, the AC50 [7] is reported as 29.1 µM (active) and the AC50 [8] is reported as 17.5 µM (active).
For `COc1ccc2c(OC)cc(=O)n(C)c2c1`, the IC50 [9] was > 79.4 µM (inactive), the IC50 [10] was > 79.4 µM (inactive) and the IC50 [11] was > 79.4 µM (inactive).
For `O=C(/C=C/c1ccccc1O)c1ccco1`, the IC50 [12] was 71.8 µM (active), the IC50 [13] was 47.6 µM (inactive) and the IC50 [14] was 62.9 µM (active). For the same compound, the IC50 [15] was 75.8 µM (active).
For `CCN(CC)CCn1c2ccccc2c2cnc(/N=C/N(C)C)c(C#N)c21`, the AC50 [16] was 11.4 µM (active), the AC50 [17] was 18 µM (active) and the AC50 [18] was 4.5 µM (active).
For `COc1cccc(OC)c1NC(=O)c1ccc(-c2cc(Cl)ccc2Cl)o1`, the IC50 [19] was 10.5 µM (inactive), the IC50 [20] was > 25 µM (inactive) and the IC50 [21] was 20.7 µM (inactive). The IC50 [22] was > 25 µM (inactive).
In the case of `COc1ccc(CN2CCCC(C(=O)N3CCCC3)C2)c(OC)c1OC` (centres undefined), the AC50 [23] is reported as 1.01 µM (active) and the EC50 [24] is reported as 0.042 µM (active).
In the case of `COc1ccc(N2CCN(S(=O)(=O)c3ccc4c(c3)CC(C)N4C(C)=O)CC2)cc1` (centres undefined), the IC50 [25] is reported as > 20 µM (inactive), the IC50 [26] is reported as 4.3 µM (active) and the IC50 [27] is reported as 3.63 µM (active).
For `CCn1c(SCc2ccccc2)nnc1-c1cccs1`, the IC50 [28] was 2.36 µM (active) and the IC50 [29] was 3.63 µM (active).
